Measurements: ChEMBL document CHEMBL1123376, “3-(1H-tetrazol-5-yl)-4(3H)-quinazolinone sodium salt (MDL 427): a new antiallergic agent” (1986)

How the values were obtained:
Format in all cases: functional
[1] = system: Rattus norvegicus; experiment: Evaluated in rat PCA (passive cutaneous anaphylaxis) test administered at 60 mg/kg ip and the inhibition of PCA due to inhibition of IgE mediated release was determined; details: route intraperitoneal; for inhibition in vivo at 60 mg/kg: Rattus norvegicus, ip
[2] = system: Rattus norvegicus; experiment: Compound was evaluated in rat PCA(passive cutaneous anaphylaxis) test administered intravenously.; details: iv
[3] = system: Rattus norvegicus; experiment: Compound was evaluated in rat PCA (passive cutaneous anaphylaxis) test administered at 100 mg/kg orally and the inhibition of PCA due to inhibition of IgE mediated release was determined; details: for inhibition in vivo at 100 mg/kg: Rattus norvegicus, po
[4] = system: Rattus norvegicus; experiment: Compound was evaluated in rat PCA (passive cutaneous anaphylaxis) test administered intravenously; details: iv

Compound: O.O=c1c2ccccc2ncn1-c1nnn[n-]1.[Na+]
- Inhibition [1]: 93%
- ED50 [2]: 0.2 mg/kg
- Inhibition ([3]; route oral): 97%

Compound: O=c1c2ccccc2ncn1-c1nnn[nH]1
- inhibition in vivo at 60 mg/kg [1]: 100%
- inhibition in vivo at 100 mg/kg [3]: 89%

Compound: O=c1c2cc3c(cc2ncn1-c1nn[nH]n1)OCO3
- inhibition in vivo at 60 mg/kg [1]: 90%

Compound: O=c1c2ccccc2ncn1-n1cnnc1
- inhibition in vivo at 60 mg/kg [1]: 0%

Compound: O=c1c2ccccc2ncn1-c1cc[nH]n1
- inhibition in vivo at 60 mg/kg [1]: 5%

Compound: O=CNc1ccccc1C(=O)Nc1nn[nH]n1
- inhibition in vivo at 60 mg/kg [1]: 89%
- inhibition in vivo at 100 mg/kg [3]: 91%

Compound: Cc1cccc2c(=O)n(-c3nn[nH]n3)cnc12
- inhibition in vivo at 60 mg/kg [1]: 64%

Compound: Cc1nc2ccccc2c(=O)n1-c1nn[nH]n1
- inhibition in vivo at 60 mg/kg [1]: 22%

Compound: COc1cccc2c(=O)n(-c3nn[nH]n3)cnc12
- inhibition in vivo at 60 mg/kg [1]: 44%

Compound: O=c1c2ccccc2ncn1-c1nc[nH]n1
- inhibition in vivo at 60 mg/kg [1]: 75%

Compound: O=c1c2cc(Cl)ccc2ncn1-c1nn[nH]n1
- inhibition in vivo at 60 mg/kg [1]: 89%

Compound: CCc1nc2ccccc2c(=O)n1-c1nn[nH]n1
- inhibition in vivo at 60 mg/kg [1]: 41%

Compound: O=c1c2ccccc2nc(-c2ccccc2)n1-c1nn[nH]n1
- inhibition in vivo at 60 mg/kg [1]: 27%

Compound: Nc1ccccc1C(=O)Nc1nn[nH]n1
- inhibition in vivo at 60 mg/kg [1]: 59%
- inhibition in vivo at 100 mg/kg [3]: 7%
- ED50 [4]: 10.5 mg/kg

Compound: Cc1cccc2ncn(-c3nn[nH]n3)c(=O)c12
- inhibition in vivo at 60 mg/kg [1]: 80%

Compound: Cc1ccc2ncn(-c3nn[nH]n3)c(=O)c2c1
- inhibition in vivo at 60 mg/kg [1]: 100%

Compound: O=C([O-])c1cc(=O)c2c(OCC(O)COc3cccc4oc(C(=O)[O-])cc(=O)c34)cccc2o1.[Na+].[Na+] [CROMOLYN SODIUM]
- inhibition in vivo at 60 mg/kg [1]: 100%
- inhibition in vivo at 100 mg/kg [3]: 0%
- ED50 [4]: 0.7 mg/kg
